Source: patent publication US5783689A, “Antibacterial and antifungal nucleosides” (University of Notre Dame, priority 1996, dated 1998)
≈ marks a conversion by molar mass, not a printed value. Read-outs that look alike come from different tables or passages of the source. Where a SMILES comes first, the peptide text is derived from it. [ ]: non-standard residue; d: D form. The star is where a group is joined. X1 = O=c1[nH]c(=O)n([C@@H]2O[C@H](CO*)[C@@H](O)[C@H]2O)cc1F; Orn(N5-OH,N5-Ac) = CC(=O)N(O)CCC[C@H](N)C(=O)O

Columns and labels:
Format in all cases: cell-based
[1] = tested on: Serratia X99; assay: MIC by agar dilution method; settings: read-out: Minimum Inhibitory Concentration
Description: (§1) The following Table 3 lists the minimum inhibitory concentrations obtained by the agar dilution method against Gram-positive and Gram-negative organisms with 5'-O-(valinyl)-5-fluorouridine and comparators ampicillin and 5-FC.

[2] = tested on: Salmonella X514; assay: MIC by agar dilution method; settings: read-out: Minimum Inhibitory Concentration
Description: as §1

[3] = tested on: Enterobacter cloacae EB5; assay: MIC by agar dilution method; settings: read-out: Minimum Inhibitory Concentration
Description: as §1

[4] = tested on: Shigella sonnei N9; assay: MIC by agar dilution method; settings: N9, read-out: Minimum Inhibitory Concentration
Description: as §1

[5] = tested on: Enterobacter aerogenes EB17; assay: MIC by agar dilution method; settings: Klebsiella aerogenes, read-out: Minimum Inhibitory Concentration
Description: as §1

[6] = tested on: Staphylococcus aureus X 1.1; assay: MIC by agar dilution method; settings: X1.1, read-out: Minimum Inhibitory Concentration
Description: as §1

[7] = tested on: Klebsiella X26; assay: MIC by agar dilution method; settings: read-out: Minimum Inhibitory Concentration
Description: as §1

[8] = tested on: Staphylococcus epidermis 222; assay: MIC by agar dilution method; settings: read-out: Minimum Inhibitory Concentration
Description: as §1

[9] = tested on: Staphylococcus aureus X 400; assay: MIC by agar dilution method
Description: as §1

[10] = tested on: E. Coli EC14; assay: MIC by agar dilution method; settings: Escherichia coli, read-out: Minimum Inhibitory Concentration
Description: as §1

[11] = tested on: Proteus stu PR33; assay: MIC by agar dilution method; settings: read-out: Minimum Inhibitory Concentration
Description: as §1

[12] = tested on: Enterococcus D 2041; assay: MIC by agar dilution method; settings: D2041, read-out: Minimum Inhibitory Concentration
Description: as §1

[13] = tested on: Serratia SE3; assay: MIC by agar dilution method; settings: read-out: Minimum Inhibitory Concentration
Description: as §1

[14] = tested on: Staphylococcus epidermis 70; assay: MIC by agar dilution method; settings: read-out: Minimum Inhibitory Concentration
Description: as §1

[15] = tested on: Staphylococcus aureus V 41; assay: MIC by agar dilution method; settings: V41, read-out: Minimum Inhibitory Concentration
Description: as §1

[16] = tested on: Enterococcus D X66; assay: MIC by agar dilution method
Description: as §1

[17] = tested on: E. Coli TEM; assay: MIC by agar dilution method; settings: Escherichia coli, read-out: Minimum Inhibitory Concentration
Description: as §1

[18] = tested on: Morganella morganii PR15; assay: MIC by agar dilution method; settings: read-out: Minimum Inhibitory Concentration
Description: as §1

[19] = tested on: Proteus rett. C24; assay: MIC by agar dilution method; settings: read-out: Minimum Inhibitory Concentration
Description: as §1

[20] = tested on: Staphylococcus aureus S13E; assay: MIC by agar dilution method; settings: read-out: Minimum Inhibitory Concentration
Description: as §1

[21] = tested on: Pseudomonas PS19; assay: MIC by agar dilution method
Description: as §1

[22] = tested on: Enterobacter aerogenes C32; assay: MIC by agar dilution method; settings: Klebsiella aerogenes, read-out: Minimum Inhibitory Concentration
Description: as §1

[23] = tested on: Salmonella 1335; assay: MIC by agar dilution method; settings: read-out: Minimum Inhibitory Concentration
Description: as §1

[24] = tested on: Streptococcus pn PARK; assay: MIC by agar dilution method; settings: read-out: Minimum Inhibitory Concentration
Description: as §1

[25] = tested on: Gram-negative microorganisms; assay: activity against Gram-negative microorganisms; settings: compared with Gram-positive bacteria
Description: as §1

[26] = tested on: Streptococcus A C203; assay: MIC by agar dilution method; set-up: key: NG: no growth
Description: as §1

[27] = tested on: Gram-positive bacteria including the methicillin resistant staphylococci; assay: in vitro growth inhibition of Gram-positive bacteria including methicillin resistant staphylococci
Description: as §1

[28] = tested on: Candida albicans; assay: in vitro test against Candida albicans, zone of inhibition, Lee's medium; settings: 37° C.
Description: The test compound of Table 3,5'-O-(valinyl)-5-fluorouridine, was coupled to the triornithyl peptide represented by the formula 2 wherein p is 3 by following the reaction Scheme 1 above and substituting valine for glycine to provide the tetrapeptide of the invention. […] Lee, K. L.; Buckley, H. R.; Campbell, C. C., Saubouraudia, 1975, 13, 148. The tetrapeptide gave a 35 mm diameter zone of inhibition at a concentration of the compound of 25 nmol. while at a concentration of 5 nmol. the zone of inhibition was 26 mm.

[29] = Pseudomonas PS19, agar dilution, read-out: Minimum Inhibitory Concentration
[30] = X400, Staphylococcus aureus X 400, agar dilution, read-out: Minimum Inhibitory Concentration
[31] = DX66, Enterococcus D X66, agar dilution, read-out: Minimum Inhibitory Concentration

CC1(C)S[C@@H]2[C@H](NC(=O)[C@H](N)c3ccccc3)C(=O)N2[C@H]1C(=O)O [Ampicillin]
MIC [1]: 0.25 µg/mL (≈ 0.715 µM)
MIC [2]: 0.06 µg/mL (≈ 0.172 µM)
MIC [3]: 0.25 µg/mL (≈ 0.715 µM)
MIC [4]: 0.6 µg/mL (≈ 1.72 µM)
MIC [5]: 0.06 µg/mL (≈ 0.172 µM)
MIC [6]: 2 µg/mL (≈ 5.72 µM)
MIC [7]: 0.008 µg/mL (≈ 0.0229 µM)
MIC [8]: 2 µg/mL (≈ 5.72 µM)
MIC ([9]; Staphylococcus aureus, X400, read-out: Minimum Inhibitory Concentration): 128 µg/mL (≈ 366 µM)
MIC ([10]; E. Coli EC14, agar dilution): 0.06 µg/mL (≈ 0.172 µM)
MIC [11]: 0.06 µg/mL (≈ 0.172 µM)
MIC [12]: 1 µg/mL (≈ 2.86 µM)
MIC [13]: 0.5 µg/mL (≈ 1.43 µM)
MIC [14]: 8 µg/mL (≈ 22.9 µM)
MIC [15]: 4 µg/mL (≈ 11.4 µM)
MIC ([16]; Enterococcus, DX66, read-out: Minimum Inhibitory Concentration): 128 µg/mL (≈ 366 µM)
MIC [17]: 0.03 µg/mL (≈ 0.0859 µM)
MIC [18]: 1 µg/mL (≈ 2.86 µM)
MIC [19]: 0.06 µg/mL (≈ 0.172 µM)
MIC [20]: 128 µg/mL (≈ 366 µM)
MIC [21, 29]: 32 µg/mL (≈ 91.6 µM)
MIC [22]: 0.5 µg/mL (≈ 1.43 µM)
MIC [23]: 0.125 µg/mL (≈ 0.358 µM)

CC(C)[C@H](N)C(=O)OC[C@H]1O[C@@H](n2cc(F)c(=O)[nH]c2=O)[C@H](O)[C@@H]1O [Test Compd, 5'-O-(L-valinyl)-5-fluorouridine]
MIC [1]: 16 µg/mL (≈ 44.3 µM)
MIC [2]: 32 µg/mL (≈ 88.6 µM)
MIC [3]: 32 µg/mL (≈ 88.6 µM)
MIC [4]: 64 µg/mL (≈ 177 µM)
MIC [5]: 64 µg/mL (≈ 177 µM)
MIC [6]: 0.5 µg/mL (≈ 1.38 µM)
MIC [7]: 32 µg/mL (≈ 88.6 µM)
MIC [8]: 1 µg/mL (≈ 2.77 µM)
MIC [9, 30]: 0.25 µg/mL (≈ 0.692 µM)
MIC ([10]; E. Coli EC14, agar dilution): 128 µg/mL (≈ 354 µM)
MIC [11]: 32 µg/mL (≈ 88.6 µM)
MIC [12]: 2 µg/mL (≈ 5.54 µM)
MIC [13]: 16 µg/mL (≈ 44.3 µM)
MIC [14]: 0.03 µg/mL (≈ 0.083 µM)
MIC [15]: 0.25 µg/mL (≈ 0.692 µM)
MIC [16, 31]: 32 µg/mL (≈ 88.6 µM)
MIC [17]: 16 µg/mL (≈ 44.3 µM)
MIC [18]: 8 µg/mL (≈ 22.1 µM)
MIC [19]: 16 µg/mL (≈ 44.3 µM)
MIC [20]: 0.125 µg/mL (≈ 0.346 µM)
MIC [21, 29]: 128 µg/mL (≈ 354 µM)
MIC [24]: 128 µg/mL (≈ 354 µM)
MIC [22]: 64 µg/mL (≈ 177 µM)
MIC [23]: 32 µg/mL (≈ 88.6 µM)
activity against Gram-negative microorganisms (in words) [25]: also active against Gram-negative microorganisms but to a lesser degree
Minimum Inhibitory Concentration [26]: NG
growth inhibition of Gram-positive bacteria / methicillin-resistant staphylococcus (in words) [27]: inhibited the in vitro growth of Gram-positive bacteria including the methicillin resistant staphylococci
growth inhibition of Gram-positive bacteria / methicillin-resistant staphylococcus (in words) ([27]; listed as 5'-O-(valinyl)-5-fluorouridine): inhibits the growth of methicillin-resistant staphylococcus

CC(=O)N(O)CCC[C@H](NC(=O)[C@H](CCCN(O)C(C)=O)NC(=O)[C@@H](N)CCCN(O)C(C)=O)C(=O)N[C@H](C(=O)OC[C@H]1O[C@@H](n2cc(F)c(=O)[nH]c2=O)[C@H](O)[C@@H]1O)C(C)C [tetrapeptide] (H-[Orn(N5-OH,N5-Ac)][Orn(N5-OH,N5-Ac)][Orn(N5-OH,N5-Ac)]V-X1)
diameter zone of inhibition ([28]; 5 nmol): 26 mm
diameter zone of inhibition ([28]; 25 nmol): 35 mm
activity against Candida albicans (in words) ([28]; in vitro): exhibited activity against Candida albicans

Nc1nc(=O)n([C@@H]2O[C@H](CO)[C@@H](O)[C@H]2O)cc1F [Example 5-FC, 5-fluorocytidine]
MIC [6]: 8 µg/mL (≈ 30.6 µM)
MIC [8]: 16 µg/mL (≈ 61.3 µM)
MIC [9, 30]: 8 µg/mL (≈ 30.6 µM)
MIC [10]: > 128 µg/mL
MIC [12]: 4 µg/mL (≈ 15.3 µM)
MIC [14]: 16 µg/mL (≈ 61.3 µM)
MIC [15]: 8 µg/mL (≈ 30.6 µM)
MIC [16, 31]: 0.25 µg/mL (≈ 0.957 µM)
MIC [20]: 2 µg/mL (≈ 7.66 µM)
MIC ([21]; Pseudomonas, PS19, read-out: Minimum Inhibitory Concentration): > 128 µg/mL
